{"source": "paper doi:10.1101/2024.07.21.604522v1", "about": "(biorxiv, 2024)", "molecular_target": "T1, human ChaC1 (ChaC1p) (Homo sapiens, UniProt Q9BUX1)", "T1 sequence (Q9BUX1 1-222)": "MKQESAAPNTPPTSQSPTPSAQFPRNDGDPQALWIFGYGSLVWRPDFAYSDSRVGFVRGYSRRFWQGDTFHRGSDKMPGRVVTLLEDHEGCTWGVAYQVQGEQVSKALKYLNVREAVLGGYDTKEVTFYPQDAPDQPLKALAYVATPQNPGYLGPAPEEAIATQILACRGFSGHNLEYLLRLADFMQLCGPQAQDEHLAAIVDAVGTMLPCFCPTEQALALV", "assay": "ChaC1p-Dug1p coupled assay, cysteine by ninhydrin", "format": "biochemical"}
{"molecule": "O=C1C=CC(=O)c2c(O)cccc21", "note": "[juglone]", "values": [{"measurement": "IC50", "value": 8.7, "unit": "µM"}]}
